Patent US11046716B2, “Beta-lactamase inhibitors” (priority 2015, dated 2021)
pIC50: −log10 of the molar value.

Assays:
[1] = system: K. pneumoniae expressing the class A carbapenemase KPC-2 and the class B carbapenemase VIM-4; experiment: Broth microdilution MIC assay with meropenem, K. pneumoniae KPC-2 and VIM-4; assay type: cell-based; conditions: Fixed Mero (meropenem) 4 μg/mL; K. p. A-1797 KPC-2 VIM-4
How it was run: (§1)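 Potentiation format: the β-lactam was held at 4 μg/ml while the test compound was serially diluted, and growth was scored visually after overnight (16-20 h) incubation at 37° C.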

OXA-48 = OXA-48 (UniProt Q6XEC0); experiment: β-lactamase enzyme inhibition assay, Class D oxacillinase; assay type: biochemical; conditions: read-out: OXA-48
[2] = system: E. cloacae expressing the Class C P99; experiment: Broth microdilution MIC assay with ceftazidime, E. cloacae P99; assay type: cell-based; conditions: Fixed CAZ (ceftazidime) 4 μg/mL; E. cl. 144200 p99 AmpC
How it was run: as §1

SHV-5 = biological target: T1, SHV-5 (Klebsiella pneumoniae, UniProt P0A3M1); experiment: β-lactamase enzyme inhibition assay, SHV-5 (cefotaxime substrate); assay type: biochemical
T1 construct: made in house; host or cells: E. coli BL21(DE3)
T1 sequence (P0A3M1 22-286): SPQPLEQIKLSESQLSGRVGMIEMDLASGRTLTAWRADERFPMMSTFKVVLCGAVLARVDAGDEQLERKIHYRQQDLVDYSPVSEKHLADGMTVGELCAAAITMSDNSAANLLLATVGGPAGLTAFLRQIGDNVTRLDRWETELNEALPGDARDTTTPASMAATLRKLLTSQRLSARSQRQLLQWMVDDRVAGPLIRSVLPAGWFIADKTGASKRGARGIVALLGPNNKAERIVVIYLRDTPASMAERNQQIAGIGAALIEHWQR
How it was run: (§2)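 Read-out is the rate of β-lactam ring hydrolysis monitored by absorbance: 300 nm for imipenem with KPC-2 and 260 nm for cefotaxime with SHV-5. Recombinant native enzymes were first incubated with compound at 37 °C for 15 min. The IC50 is the inhibitor concentration that halves the initial hydrolysis rate.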

[3] = system: E. coli expressing the Class A Extended Spectrum Beta-Lactamase (ESBL) CTX-M-15; experiment: Broth microdilution MIC assay with ceftazidime, E. coli CTX-M-15; assay type: cell-based; conditions: Fixed CAZ (ceftazidime) 4 μg/mL; E. coli ESBL4 CTX-M-15
How it was run: as §1

KPC-2 = biological target: T2, KPC-2 (Klebsiella pneumoniae, UniProt Q9F663); experiment: β-lactamase enzyme inhibition assay, KPC-2 (imipenem substrate); assay type: biochemical; conditions: Class A; imipenem substrate, 300 nm; read-out: KPC-2
T2 construct: made in house; host or cells: E. coli BL21(DE3)
T2 sequence (Q9F663 25-293, looked up): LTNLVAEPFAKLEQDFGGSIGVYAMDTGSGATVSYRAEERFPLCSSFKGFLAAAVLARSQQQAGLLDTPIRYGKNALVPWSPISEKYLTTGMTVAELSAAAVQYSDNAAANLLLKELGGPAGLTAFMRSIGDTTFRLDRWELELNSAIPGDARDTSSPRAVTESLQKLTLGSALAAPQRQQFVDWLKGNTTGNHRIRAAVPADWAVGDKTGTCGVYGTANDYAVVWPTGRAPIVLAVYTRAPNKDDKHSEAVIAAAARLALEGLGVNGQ
How it was run: as §2

[4] = system: K. pneumoniae producing the Class D carbapenemase OXA-48; experiment: Broth microdilution MIC assay with meropenem, K. pneumoniae OXA-48; assay type: cell-based; conditions: Fixed Mero (meropenem) 4 μg/mL; K. p. 11978 OXA-48
How it was run: as §1

[5] = system: P. aeruginosa expressing the Class B carbapenemase VIM-2; experiment: Broth microdilution MIC assay with meropenem, P. aeruginosa VIM-2; assay type: cell-based; conditions: Fixed Mero (meropenem) 4 μg/mL; P. aerug. 2775 VIM-2
How it was run: as §1

AmpC = biological target: T3, AmpC (Enterobacter cloacae, UniProt P05364); experiment: β-lactamase enzyme inhibition assay, p99 AmpC (nitrocefin substrate); assay type: biochemical
T3 construct: made in house; host or cells: E. coli BL21(DE3)
T3 sequence (P05364 21-381): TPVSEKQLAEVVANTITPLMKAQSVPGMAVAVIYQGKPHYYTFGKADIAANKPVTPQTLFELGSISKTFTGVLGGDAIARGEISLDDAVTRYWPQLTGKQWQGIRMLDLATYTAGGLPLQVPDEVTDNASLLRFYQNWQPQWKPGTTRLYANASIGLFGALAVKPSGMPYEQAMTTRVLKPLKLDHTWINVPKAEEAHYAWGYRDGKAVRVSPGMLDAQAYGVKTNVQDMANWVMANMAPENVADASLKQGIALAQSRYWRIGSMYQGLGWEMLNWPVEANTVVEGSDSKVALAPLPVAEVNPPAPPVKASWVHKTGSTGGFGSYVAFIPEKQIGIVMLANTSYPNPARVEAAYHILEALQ
How it was run: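 Read-out is the rate of β-lactam ring hydrolysis monitored by absorbance. Recombinant native enzymes were first incubated with compound at 37 °C for 15 min. The IC50 is the inhibitor concentration that halves the initial hydrolysis rate.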

VIM-2 = biological target: T4, VIM-2 (Escherichia coli, UniProt Q5U7L7); experiment: β-lactamase enzyme inhibition assay, VIM-2 (nitrocefin substrate); assay type: biochemical; conditions: Class B; nitrocefin substrate, 486 nm; read-out: VIM-2
T4 construct: made in house; host or cells: E. coli BL21(DE3)
How it was run: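 IC50 reflects the inhibitor concentration cutting the initial nitrocefin hydrolysis rate by half, compared with control wells lacking inhibitor. Substrate was used at 100 μM final after a 15 min, 37 °C enzyme–inhibitor preincubation.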

[6] = system: K. pneumoniae expressing the Class A carbapenemase KPC-2; experiment: Broth microdilution MIC assay with meropenem, K. pneumoniae KPC-2; assay type: cell-based; conditions: Fixed Mero (meropenem) 4 μg/mL; K. p. 156319 KPC-3
How it was run: as §1

NNC(=O)Cn1nnc(CC(=O)N[C@H]2Cc3cccc(C(=O)O)c3OB2O)n1 [Example 96, (R)-3-(2-(2-(2-hydrazinyl-2-oxoethyl)-2H-tetrazol-5-yl)acetamido)-2-hydroxy-3,4-dihydro-2H-benzo[e][1,2]oxaborinine-8-carboxylic acid]
MIC (μg/mL) of Exemplary Compounds in presence of fixed β-lactams: K. p. A-1797 KPC-2 VIM-4 [1]: B (B represents an MIC between 1 and 16 μg/mL inclusive) | pIC50 (OXA-48): > 7.00 | MIC (μg/mL) of Exemplary Compounds in presence of fixed β-lactams: E. cl. 144200 p99 AmpC [2]: C (C represents an MIC of <1 μg/mL) | pIC50 (SHV-5): > 7.00 | MIC (μg/mL) of Exemplary Compounds in presence of fixed β-lactams: E. coli ESBL4 CTX-M-15 [3]: C (C represents an MIC of <1 μg/mL) | pIC50 (KPC-2): > 7.00 | MIC (μg/mL) of Exemplary Compounds in presence of fixed β-lactams: K. p. 11978 OXA-48 [4]: B (B represents an MIC between 1 and 16 μg/mL inclusive) | MIC (μg/mL) of Exemplary Compounds in presence of fixed β-lactams: P. aerug. 2775 VIM-2 [5]: C (C represents an MIC of <1 μg/mL) | pIC50 (AmpC): > 7.00 | pIC50 (VIM-2): 6.00 to 7.00 | MIC (μg/mL) of Exemplary Compounds in presence of fixed β-lactams: K. p. 156319 KPC-3 [6]: B (B represents an MIC between 1 and 16 μg/mL inclusive)

NOCC(=O)NCc1cn(CC(=O)N[C@H]2Cc3cccc(C(=O)O)c3OB2O)nn1 [Example 77, (R)-3-(2-(4-((2-(aminooxy)acetamido)methyl)-1H-1,2,3-triazol-1-yl)acetamido)-2-hydroxy-3,4-dihydro-2H-benzo[e][1,2]oxaborinine-8-carboxylic acid]
MIC (μg/mL) of Exemplary Compounds in presence of fixed β-lactams: K. p. A-1797 KPC-2 VIM-4 [1]: B (B represents an MIC between 1 and 16 μg/mL inclusive) | pIC50 (OXA-48): 6.00 to 7.00 | MIC (μg/mL) of Exemplary Compounds in presence of fixed β-lactams: E. cl. 144200 p99 AmpC [2]: C (C represents an MIC of <1 μg/mL) | pIC50 (SHV-5): > 7.00 | MIC (μg/mL) of Exemplary Compounds in presence of fixed β-lactams: E. coli ESBL4 CTX-M-15 [3]: C (C represents an MIC of <1 μg/mL) | pIC50 (KPC-2): > 7.00 | MIC (μg/mL) of Exemplary Compounds in presence of fixed β-lactams: K. p. 11978 OXA-48 [4]: B (B represents an MIC between 1 and 16 μg/mL inclusive) | MIC (μg/mL) of Exemplary Compounds in presence of fixed β-lactams: P. aerug. 2775 VIM-2 [5]: C (C represents an MIC of <1 μg/mL) | pIC50 (AmpC): > 7.00 | pIC50 (VIM-2): 6.00 to 7.00 | MIC (μg/mL) of Exemplary Compounds in presence of fixed β-lactams: K. p. 156319 KPC-3 [6]: C (C represents an MIC of <1 μg/mL)

Nc1ccc(-c2cn(CC(=O)N[C@H]3Cc4cccc(C(=O)O)c4OB3O)nn2)cn1 [Example 74, (R)-3-(2-(4-(6-aminopyridin-3-yl)-1H-1,2,3-triazol-1-yl)acetamido)-2-hydroxy-3,4-dihydro-2H-benzo[e][1,2]oxaborinine-8-carboxylic acid]
MIC (μg/mL) of Exemplary Compounds in presence of fixed β-lactams: K. p. A-1797 KPC-2 VIM-4 [1]: A (A represents an MIC>16 μg/mL) | pIC50 (OXA-48): 6.00 to 7.00 | MIC (μg/mL) of Exemplary Compounds in presence of fixed β-lactams: E. cl. 144200 p99 AmpC [2]: C (C represents an MIC of <1 μg/mL) | pIC50 (SHV-5): > 7.00 | MIC (μg/mL) of Exemplary Compounds in presence of fixed β-lactams: E. coli ESBL4 CTX-M-15 [3]: C (C represents an MIC of <1 μg/mL) | pIC50 (KPC-2): > 7.00 | MIC (μg/mL) of Exemplary Compounds in presence of fixed β-lactams: K. p. 11978 OXA-48 [4]: B (B represents an MIC between 1 and 16 μg/mL inclusive) | MIC (μg/mL) of Exemplary Compounds in presence of fixed β-lactams: P. aerug. 2775 VIM-2 [5]: B (B represents an MIC between 1 and 16 μg/mL inclusive) | pIC50 (AmpC): > 7.00 | pIC50 (VIM-2): 5.00 to 6.00 | MIC (μg/mL) of Exemplary Compounds in presence of fixed β-lactams: K. p. 156319 KPC-3 [6]: B (B represents an MIC between 1 and 16 μg/mL inclusive)
